From article PMC11671526, “β-caryophyllene sensitizes hepatocellular carcinoma cells to chemotherapeutics and inhibits cell malignancy through targeting MAPK signaling pathway” (Frontiers in Pharmacology, 2024)

Columns and labels:
[1] = system: HL-7702 normal liver cells; experiment: CCK8 cell viability assay; assay type: cell-based, human; settings: Homo sapiens, L02; HL-7702, 48 h, individual treatment; read-out: IC50 (half maximal inhibitory concentration)
Description: (§1) Cell viability assay using the CCK8 reagent (Bimake, Shanghai, China) was conducted according to the manufacturer’s instructions. The cell proliferation data were used to calculate the cell viability. Briefly, HepG2, SMMC-7721, and HL-7702 cells with a density of 5 × 10^3 cells/well were seeded into each well of 96-well plates and incubated overnight. […] After 48 h, 10 µL of CCK8 reagent was added to each well, followed by 2 h incubation at 37°C and measurement of absorbance at 450 nm using a microplate reader (Molecular Devices, LLC.). […] The effects of the combinatorial inhibition were visualized by isobologram analyses ([Tallarida, 2001]). […] A line was drawn to link the two IC50 points. […] The dots above, on, or below the line indicate the “antagonistic,” “additive” and “synergistic” effects, respectively. The same method was used to obtain the CI value for the cotreatment of BCP and DDP.

HepG2 cells [2] = experiment: CCK8 cell viability assay; assay type: cell-based, human; settings: Homo sapiens; HepG2, 48 h, individual treatment; read-out: IC50 (half maximal inhibitory concentration)
Description: as §1

SMMC-7721 cells [3] = experiment: CCK8 cell viability assay; assay type: cell-based, human; settings: Homo sapiens; SMMC-7721, 48 h, individual treatment; read-out: IC50 (half maximal inhibitory concentration)
Description: as §1

HepG2 cells [4] = experiment: Transwell migration assay; assay type: cell-based; settings: Homo sapiens, 48 h, vs ethanol control, read-out: inhibition of cell migration
Description: The transwell migration and invasion experiments were conducted using a 24-well plate (cat# 3422, Corning). HepG2 and SMMC-7721 cells (5 × 10^4) were suspended in 100 µL of medium supplied with ethanol, 150 and 300 µM of BCP and added to the top chamber, while 600 µL of complete medium containing 10% FBS was added into the lower chamber. After 48 h of incubation at 37°C, the cells from the top chamber were carefully removed using a cotton swab, while the cells penetrated through the membrane were fixed using 600 µL of 70% methanol for 15 min. To stain the cells, 600 µL of 0.2% crystal violet was used to treat the Transwell inserts for 10 min, followed by washing and drying, and the membranes of the inserts were photographed using an inverted microscope (Leica DM13000 B). The positive staining area was calculated using ImageJ software.

HepG2 cells [5] = experiment: Colony formation assay with ectopic PGF expression; assay type: cell-based, human
Source text: (§2) The placental growth factor (PGF) coding sequence was amplified using gene specific primers and then subcloned into a lentiviral vector pSL4-Flag expressing the puromycin resistance gene to generate pSL4-Flag-PGF vector with a CMV promoter driving PGF expression. The primers used to amplify the PGF coding sequence, check the amplified DNA fragment and verify its ectopic expression are listed in Supplementary Table S1. Lentiviruses carrying pSL4-Flag-PGF and an empty pSL4-Flag vector were produced and used to infect HCC cells based on our previously reported procedure ([Wan et al., 2012]). Ectopic PGF expression was achieved by infecting HCC cells with pSL4-Flag-PGF lentivirus, and the control cells were produced by infecting HCC cells using lentivirus carrying the empty pSL4-Flag-vector.
HepG2 cells were cultured overnight into 12-well plates with a density of 1×10^3 cells/well. The cells were then individually infected by pSL4-Flag-vector and pSL4-Flag-PGF lentiviruses. After 24 h, the cells were cultured in a complete medium containing 150 µM of BCP or an equal volume of ethanol for 10 days. The plates were washed using ice-cold PBS three times and cells were fixed using 70% ice-cold methanol for 20 min. […] The stained wells were photographed and clonogenicity was analyzed using ImageJ software.

HepG2 cells [6] = experiment: CCK8 viability of cells infected by pSL4-Flag vector or pSL4-Flag-PGF lentivirus; assay type: cell-based; settings: Homo sapiens, HepG2, 48 h
Description: (§3) Cell viability assay using the CCK8 reagent (Bimake, Shanghai, China) was conducted according to the manufacturer’s instructions. The cell proliferation data were used to calculate the cell viability. Briefly, HepG2, SMMC-7721, and HL-7702 cells with a density of 5 × 10^3 cells/well were seeded into each well of 96-well plates and incubated overnight. […] After 48 h, 10 µL of CCK8 reagent was added to each well, followed by 2 h incubation at 37°C and measurement of absorbance at 450 nm using a microplate reader (Molecular Devices, LLC.). The cell viability percentage of all compounds or their combinations at certain concentrations during the treatment period was evaluated by normalizing absorbance at 450 nm to that of vehicle controls. The half maximal inhibitory concentrations (IC50) values were calculated using the GraphPad Prism 8 software.
as §2

SMMC-7721 cells [7] = experiment: as above; assay type: cell-based; settings: Homo sapiens
Description: as §3, §2

Compound C=C1CC/C=C(\C)CC[C@@H]2[C@@H]1CC2(C)C [BCP, β-caryophyllene] has an IC50 [1] of 610.9 ± 2.72 µM, an IC50 (HepG2 cells [2]) of 194 ± 3.2 µM and an IC50 (SMMC-7721 cells [3]) of 334.5 ± 2.96 µM. The inhibition at 150 µM (HepG2 cells [4]; HepG2, 150 µM) was 49%, the inhibition at 300 µM (HepG2 cells [4]; HepG2, 300 µM) was 75.6% and the colony formation (HepG2 cells [5]; HepG2 carrying pSL4-vector, 150 µM BCP 10 days, compared to control without BCP) was “significantly decreased colonies”. For the same compound, the colony formation (HepG2 cells [5]; HepG2 expressing ectopic PGF vs empty vector, same BCP treatment (150 µM, 10 days)) was “more colonies”, the IC50 (HepG2 cells [6]; HepG2 cells carrying empty vector) was 178 µM and the IC50 (HepG2 cells [6]; HepG2 cells expressing Flag-PGF) was 284 µM. The IC50 (SMMC-7721 cells [7]; SMMC-7721, SMMC-7721 cells carrying empty vector) was 318 µM and the IC50 (SMMC-7721 cells [7]; SMMC-7721, SMMC-7721 cells expressing Flag-PGF) was 405 µM.
